Laboratory results from patent US20230407243A1, “GENETIC PLATFORM TO INVESTIGATE THE FUNCTIONS OF BACTERIAL DRUG EFFLUX PUMPS” (priority 2022, published 2023).
Where two headings read alike, the source gives them in different places.

Legend:
Assay type in all cases: cell-based, Escherichia coli
[1] = system: ΔtolC-Pore; experiment: microbe, parasite or virus in culture; details: for Minimum inhibitory concentration (MIC), Pore ΔtolC: Table 10, with pore
How it was run: (§1)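 E. coli strains carrying a genomically integrated constitutive fhuA ΔC/Δ4L pore were grown 18 h in LB at 37 °C, then diluted 1/2000 in MHB II from OD600 ~1.0. Compounds were tested in duplicate, 2-fold serial titration, for 18 h at 37 °C with shaking. MIC came from OD600 with the pre-incubation background subtracted.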

[2] = system: wild-type (WT) K-12-Pore; experiment: microbe, parasite or virus in culture; details: technical duplicate; for MIC: Escherichia coli
How it was run: as §1

[3] = system: EKO-35-Pore; experiment: MIC susceptibility profiling, porinated strain; details: for Fold changes of MICs: EKO-35-Pore compared to EKO-35-Pore (reference); for MIC: Escherichia coli
How it was run: as §1

[4] = system: EKO-35 araC::acrBD408A Pore; experiment: MIC susceptibility profiling, porinated efflux platform; details: for Fold changes of MICs: EKO-35 araC::acrBD408A Pore compared to EKO-35-Pore
How it was run: as §1

[5] = system: EKO-35 araC::emrAB Pore; experiment: as above; details: for Fold changes of MICs: EKO-35 araC::emrAB Pore compared to EKO-35-Pore
How it was run: as §1

[6] = system: EKO-35 araC::mdtEF Pore; experiment: as above; details: for Fold changes of MICs: EKO-35 araC::mdtEF Pore compared to EKO-35-Pore
How it was run: as §1

[7] = system: EKO-35 araC::macAB Pore; experiment: as above; details: for Fold changes of MICs: EKO-35 araC::macAB Pore compared to EKO-35-Pore
How it was run: as §1

[8] = system: EKO-35 araC::mexCD Pore; experiment: as above; details: for Fold changes of MICs: EKO-35 araC::mexCD Pore compared to EKO-35-Pore; for efflux pump-mediated resistance vs EKO-35-Pore: MexCD, OM compromised
How it was run: as §1

[9] = system: EKO-35 araC::acrEF Pore; experiment: as above; details: for Fold changes of MICs: EKO-35 araC::acrEF Pore compared to EKO-35-Pore
How it was run: as §1

[10] = system: EKO-35 araC::mdtBC Pore; experiment: as above; details: for Fold changes of MICs: EKO-35 araC::mdtBC Pore compared to EKO-35-Pore
How it was run: as §1

[11] = system: EKO-35 araC::acrD Pore; experiment: as above; details: for Fold changes of MICs: EKO-35 araC::acrD Pore compared to EKO-35-Pore
How it was run: as §1

[12] = system: EKO-35 araC::acrB Pore; experiment: as above; details: for Fold changes of MICs: EKO-35 araC::acr-B Pore compared to EKO-35-Pore
How it was run: as §1

[13] = system: EKO-35 araC::emrKY Pore; experiment: as above; details: for Fold changes of MICs: EKO-35 araC::emrKY Pore compared to EKO-35-Pore
How it was run: as §1

[14] = system: E. coli EKO-35; experiment: microbe, parasite or virus in culture; details: for Fold change of MICs: EKO-35 compared to EKO-35 (reference); for MIC: Escherichia coli, EKO35
How it was run: (§2)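 Turbidity (OD600, pre-incubation subtracted) defined growth after 18 h at 37 °C in MHB II. The inoculum was diluted 1/2000 from an OD600 ~1.0 PBS suspension of an overnight LB culture. Compounds were run as duplicate twofold dilutions.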

[15] = system: E. coli ΔtolC; experiment: microbe, parasite or virus in culture; details: for Minimum inhibitory concentration (MIC), ΔtolC: Table 10, without pore
How it was run: as §2

[16] = system: wild-type E. coli K-12 str. BW25113; experiment: microbe, parasite or virus in culture; details: technical duplicate; for MIC: Escherichia coli, BW25113
How it was run: as §2

[17] = system: EKO-35 araC::mdtBC; experiment: MIC susceptibility profiling, efflux platform; details: for Fold change of MICs: EKO-35 araC::mdtBC compared to EKO-35
How it was run: as §2

[18] = system: EKO-35 araC::mdtEF; experiment: MIC susceptibility profiling, efflux platform; details: for Fold change of MICs: EKO-35 araC::mdtEF compared to EKO-35
How it was run: as §2

[19] = Table 14A, porinated, technical duplicate
[20] = Table 13A, non-porinated, technical duplicate

For `COc1ccc(C[C@H](N)C(=O)N[C@H]2[C@@H](O)[C@H](n3cnc4c(N(C)C)ncnc43)O[C@@H]2CO)cc1` [puromycin], the MIC ([1]; Escherichia coli, 18 h, read-out: Minimum inhibitory concentration, ΔtolC-Pore) was 1.56 µg/mL, the “Minimum inhibitory concentration (MIC), Pore ΔtolC” value ([1]; technical duplicate) was 1.563 µg/mL and the MIC ([2]; Table 10, with pore, read-out: Minimum inhibitory concentration (MIC), Pore K-12) was 50 µg/mL. For the same molecule, the MIC ([2]; Table 14A, porinated, read-out: Minimum inhibitory concentration, K-12 (WT)-Pore) was 50 µg/mL, the “Fold changes of MICs” value [3] was 1 fold and the MIC ([3]; Table 10, with pore, technical duplicate, read-out: Minimum inhibitory concentration (MIC), Pore EKO-35) was 0.781 µg/mL. The MIC ([3]; Table 14A, porinated, technical duplicate, read-out: Minimum inhibitory concentration, EKO-35-Pore) was 0.781 µg/mL, the “Fold changes of MICs” value [4] was 1 fold and the MIC ([4]; Escherichia coli, EKO-35 araC::acrBD408A Pore, technical duplicate, read-out: Minimum inhibitory concentration) was 0.781 µg/mL. The “Fold changes of MICs” value [5] was 1 fold, the MIC ([5]; Escherichia coli, EKO-35 araC::emrAB Pore, technical duplicate, read-out: Minimum inhibitory concentration) was 0.781 µg/mL and the “Fold changes of MICs” value [6] was 2 fold. For the same molecule, the MIC ([6]; Escherichia coli, Table 14A, porinated, technical duplicate, read-out: Minimum inhibitory concentration, EKO-35 araC::mdtEF Pore) was 1.56 µg/mL, the “Fold changes of MICs” value [7] was 1 fold and the MIC ([7]; Escherichia coli, EKO-35 araC::macAB Pore, technical duplicate, read-out: Minimum inhibitory concentration) was 0.781 µg/mL. For the same molecule, the “Fold changes of MICs” value [8] was 2 fold, the MIC ([8]; Escherichia coli, EKO-35 araC::mexCD Pore, technical duplicate, read-out: Minimum inhibitory concentration) was 1.56 µg/mL and the “efflux pump-mediated resistance vs EKO-35-Pore” value [8] was “no longer associated MexCD with resistance”. For the same molecule, the “Fold changes of MICs” value [9] was 4 fold, the MIC ([9]; Escherichia coli, Table 14A, porinated, technical duplicate, read-out: Minimum inhibitory concentration, EKO-35 araC::acrEF Pore) was 3.12 µg/mL and the “Fold changes of MICs” value [10] was 1 fold. The MIC ([10]; Escherichia coli, EKO-35 araC::mdtBC Pore, technical duplicate, read-out: Minimum inhibitory concentration) was 0.781 µg/mL, the “Fold changes of MICs” value [11] was 1 fold and the MIC ([11]; Escherichia coli, Table 14A, porinated, technical duplicate, read-out: Minimum inhibitory concentration, EKO-35 araC::acrD Pore) was 0.781 µg/mL. For the same molecule, the “Fold changes of MICs” value [12] was 64 fold, the “Fold changes of MICs” value [13] was 2 fold and the MIC ([13]; Escherichia coli, EKO-35 araC::emrKY Pore, technical duplicate, read-out: Minimum inhibitory concentration) was 1.56 µg/mL. The “Fold change of MICs” value [14] was 1 fold, the MIC ([14]; Table 10, without pore, technical duplicate, read-out: Minimum inhibitory concentration (MIC), EKO-35) was 1.56 µg/mL and the MIC ([14]; Table 13A, non-porinated, technical duplicate, read-out: Minimum Inhibitory Concentration, EKO-35) was 1.56 µg/mL. For the same molecule, the MIC ([15]; Escherichia coli, 18 h, read-out: Minimum Inhibitory Concentration, ΔtolC) was 3.12 µg/mL, the “Minimum inhibitory concentration (MIC), ΔtolC” value ([15]; technical duplicate) was 3.125 µg/mL and the MIC ([16]; Table 10, without pore, read-out: Minimum inhibitory concentration (MIC), K-12) was 50 µg/mL. The MIC ([16]; Table 13A, non-porinated, read-out: Minimum Inhibitory Concentration, K-12) was 50 µg/mL, the “Fold change of MICs” value [17] was 1 fold and the MIC ([17]; Escherichia coli, Table 13B, non-porinated, technical duplicate, read-out: Minimum Inhibitory Concentration, EKO-35 araC::mdtBC) was 1.56 µg/mL. For the same molecule, the “Fold change of MICs” value [18] was 1 fold and the MIC ([18]; Escherichia coli, Table 13A, non-porinated, technical duplicate, read-out: Minimum Inhibitory Concentration, EKO-35 araC::mdtEF) was 1.56 µg/mL.
For `C[C@H](CCC(=O)NCCS(=O)(=O)[O-])[C@H]1CC[C@H]2[C@@H]3CC[C@@H]4C[C@H](O)CC[C@]4(C)[C@H]3C[C@H](O)[C@]12C.[Na+]` [sodium taurodeoxycholate], the “Minimum inhibitory concentration (MIC), Pore ΔtolC” value ([1]; technical duplicate) was 250 µg/mL, the “Minimum inhibitory concentration, ΔtolC-Pore” value [1, 19] was 250 µg/mL and the “Minimum inhibitory concentration (MIC), Pore K-12” value ([2]; Table 10, with pore) was 1000 µg/mL. For the same molecule, the “Minimum inhibitory concentration, K-12 (WT)-Pore” value ([2]; Table 14A, porinated) was 1000 µg/mL, the “Fold changes of MICs” value [3] was 1 fold and the “Minimum inhibitory concentration (MIC), Pore EKO-35” value ([3]; Table 10, with pore, technical duplicate) was 250 µg/mL. For the same molecule, the “Minimum inhibitory concentration, EKO-35-Pore” value [3, 19] was 250 µg/mL, the “Fold changes of MICs” value [4] was 1 fold and the Minimum inhibitory concentration ([4]; EKO-35 araC::acrBD408A Pore, technical duplicate) was 250 µg/mL. For the same molecule, the “Fold changes of MICs” value [5] was 2 fold, the Minimum inhibitory concentration ([5]; EKO-35 araC::emrAB Pore, technical duplicate) was 500 µg/mL and the “Fold changes of MICs” value [6] was 4 fold. For the same molecule, the “efflux pump-mediated resistance vs EKO-35-Pore” value ([6]; MdtEF with the pore) was “increased resistance”, the “Minimum inhibitory concentration, EKO-35 araC::mdtEF Pore” value [6, 19] was 1000 µg/mL and the “Fold changes of MICs” value [7] was 1 fold. For the same molecule, the Minimum inhibitory concentration ([7]; EKO-35 araC::macAB Pore, technical duplicate) was 250 µg/mL, the “Fold changes of MICs” value [8] was 4 fold and the Minimum inhibitory concentration ([8]; EKO-35 araC::mexCD Pore, technical duplicate) was 1000 µg/mL. For the same molecule, the “efflux pump-mediated resistance vs EKO-35-Pore” value [8] was “increased resistance”, the “efflux pump-mediated resistance vs EKO-35-Pore” value ([9]; AcrEF with the pore) was “increased resistance” and the “Fold changes of MICs” value [9] was 4 fold. For the same molecule, the “Minimum inhibitory concentration, EKO-35 araC::acrEF Pore” value [9, 19] was 1000 µg/mL, the “Fold changes of MICs” value [10] was 4 fold and the Minimum inhibitory concentration ([10]; EKO-35 araC::mdtBC Pore, technical duplicate) was 1000 µg/mL. The “efflux pump-mediated resistance vs EKO-35-Pore” value ([10]; MdtBC with the pore) was “associated MdtBC with resistance”, the “Fold changes of MICs” value [11] was 4 fold and the “Minimum inhibitory concentration, EKO-35 araC::acrD Pore” value [11, 19] was 1000 µg/mL. For the same molecule, the “efflux pump-mediated resistance vs EKO-35-Pore” value ([12]; AcrB with the pore) was “increased resistance”, the “Fold changes of MICs” value [12] was 4 fold and the “Minimum inhibitory concentration, EKO-35 araC::acrB Pore” value [12, 19] was 1000 µg/mL. For the same molecule, the “Fold changes of MICs” value [13] was 1 fold, the Minimum inhibitory concentration ([13]; EKO-35 araC::emrKY Pore, technical duplicate) was 250 µg/mL and the “Fold change of MICs” value [14] was 1 fold. For the same molecule, the “Minimum inhibitory concentration (MIC), EKO-35” value ([14]; Table 10, without pore, technical duplicate) was 500 µg/mL, the “Minimum Inhibitory Concentration, EKO-35” value [14, 20] was 500 µg/mL and the “Minimum inhibitory concentration (MIC), ΔtolC” value ([15]; technical duplicate) was 250 µg/mL. For the same molecule, the “Minimum Inhibitory Concentration, ΔtolC” value [15, 20] was 250 µg/mL, the “Minimum inhibitory concentration (MIC), K-12” value ([16]; Table 10, without pore) was 1000 µg/mL and the “Minimum Inhibitory Concentration, K-12” value ([16]; Table 13A, non-porinated) was 1000 µg/mL. For the same molecule, the “Fold change of MICs” value [17] was 2 fold, the “Minimum Inhibitory Concentration, EKO-35 araC::mdtBC” value ([17]; Table 13B, non-porinated, technical duplicate) was 1000 µg/mL and the “Fold change of MICs” value [18] was 2 fold. For the same molecule, the “Minimum Inhibitory Concentration, EKO-35 araC::mdtEF” value [18, 20] was 1000 µg/mL.
